Our source for the AC50 values is PubChem BioAssay AID504882 (Broad Institute, 2011).

SMILES strings stand for the structures. Inconclusive results are not listed. Activity calls are given as the source filed them. How the calls were made is not given here.

In this experiment the test system is EBV lymphoblastoid cells (LCL) viability, plate reader. The experiment is described as follows: cytotoxicity in EBV lymphoblastoid cells, dose response, cytotoxicity control, cell-based, plate reader, cherry-picks, set 2 (AID 504882).
Turning to `O=C1C(=C(c2ccccc2)N2CCOCC2)Cc2ccccc21`, the AC50 is 5.38 µM.

Consider `COc1ccc(O)c(/C=N/NC(=O)c2ccc(OCc3cccc(Br)c3)cc2)c1`, for which the AC50 is 4.03 µM.

As for `O=c1cc(-c2ccccc2)oc2ccc3ccccc3c12`, the AC50 is 8.53 µM.

On to `O=C(Nc1nnc(SCc2ccc(F)cc2)s1)c1ccccn1`, for which the AC50 was 14.1 µM.

Take `CC1(C)N=C(N)N=C(N)N1c1ccc(CCCCc2ccccc2)cc1`: the AC50 was 0.991 µM.

`O=c1c2c(nc3c(-c4ccc(Cl)cc4)c[nH]n13)CCCC2`: the AC50 is 2.44 µM.

In the case of `CCCc1c(C(=O)N/N=C(\C)c2ccccn2)nnn1-c1nonc1N`, the AC50 is 1.57 µM.

Take `c1ccc(-c2nc(-c3ccccn3)no2)cc1`: the AC50 is 9.22 µM.

With `CCN(CC)S(=O)(=O)c1cc([N+](=O)[O-])ccc1NNC(=O)Nc1ccc(Cl)c(Cl)c1`, the AC50 was 20.2 µM.

Regarding `N#Cc1ccc(-c2csc(NNC(=O)c3ccc(Br)cc3)n2)cc1`, the AC50 is 5.38 µM.

`CC(=NNC(=S)N1CCCC1)c1ccccn1`: the AC50 is 0.037 µM.

For `CCNc1ccc(Br)cc(C(=O)/C=C/c2c(Cl)cccc2Cl)c1=O`, the half-maximal activity concentration (AC50) was 13.8 µM.

In the case of `C=CC(=O)OCCOCCOCCOCCOC(=O)C=C`, the half-maximal activity concentration (AC50) is 16.9 µM.

As for `CS(=O)(=O)c1ncc(Cl)c(C(=O)Nc2ccc(OC(F)F)cc2)n1`, the AC50 is 4.53 µM.

For the molecule `CN1C(=O)N(C)c2ccc(C=O)c3cccc1c23`, the AC50 is 5.99 µM.

Turning to `CCN(CC)c1ccc(/C=N/NC(=O)c2ccc3nc[nH]c3c2)c(O)c1`, the concentration at half-maximal activity (AC50) is 4.14 µM.

With `O=S(=O)(c1ccc2c(c1)C(=NO)c1cc(S(=O)(=O)N3CCCCC3)ccc1-2)N1CCCCC1`, the AC50 is 1.2 µM.

As for `NC(Cc1ccc(O)cc1)C(=O)NN=Cc1ccc(N(CCCl)CCCl)cc1` (configuration not stated), the AC50 was 0.983 µM.

With `O=C(CCc1ccccc1)NC(c1cccs1)c1cc(Cl)c2cccnc2c1O` (configuration not stated), the AC50 is 7.03 µM.

In the case of `Cc1cc(N/N=C\c2ccc(Br)cc2)nc(-n2nc(C)cc2C)n1`, the half-maximal activity concentration (AC50) is 4.81 µM.

Turning to `O=C(N/N=C/c1cc2c3c(c1O)CCCN3CCC2)c1ccccc1O`, the half-maximal activity concentration (AC50) was 3.05 µM.

`CCn1c2ccccc2c2cc(/C=C(/C#N)C(N)=S)ccc21`: the AC50 was 0.998 µM.

In the case of `C(=N\Nc1nc2ccccc2[nH]1)/c1cccc2cccnc12`, the AC50 was 1.06 µM.

On to `Cc1ccc2nc(-c3ccccn3)[nH]c2c1`, for which the AC50 was 19.5 µM.

On to `CCC(=O)NC(c1cc(Cl)c2cccnc2c1O)C(C)C` (configuration not stated), for which the AC50 was 6.78 µM.

As for `O=C(/C=C/c1ccco1)Oc1cc(Br)cc(/C=N/NC(=O)c2ccccc2O)c1`, the concentration at half-maximal activity (AC50) was 6.29 µM.

As to `Cn1c(/C=C/c2ccccc2)nc2ccccc21`, the AC50 is 13.9 µM.

Take `CC(=NNC(=S)Nc1ccccc1)c1ccccn1`: the half-maximal activity concentration (AC50) was 0.068 µM.

With `COc1ccc(-n2nc(C(=O)c3cccs3)cc(-c3nc4ccccc4[nH]3)c2=N)cc1`, the concentration at half-maximal activity (AC50) is 8.9 µM.

On to `CCN(CC)c1ccc(/C=N/NC(=O)c2cnccn2)c(O)c1`, for which the AC50 is 3.23 µM.

`Cc1ccc(CSc2nc3ccncc3[nH]2)cc1`: the AC50 was 19.5 µM.

Consider `Cn1nnnc1N=N/C(=N/Nc1ccccc1)c1ccccc1`, for which the AC50 is 1.71 µM.

In the case of `CCN(CC)c1ccc(/C=N/Nc2nc3ccccc3[nH]2)c(O)c1`, the AC50 is 2.74 µM.

Regarding `CCOc1ccc(C(C)=O)cc1COc1cccnc1[N+](=O)[O-]`, the AC50 is > 19.5 µM (inactive).

Regarding `Cc1cc(Sc2nnc(/N=C/N(C)C)s2)c2ccccc2n1`, the concentration at half-maximal activity (AC50) was 9.16 µM.

In the case of `Cc1sc2ncnc(N/N=C/c3ccccc3O)c2c1C`, the half-maximal activity concentration (AC50) is 3.59 µM.

In the case of `Oc1ccc(C=NNc2ccccn2)c(O)c1`, the AC50 is 16.2 µM.

For `CC(=NNC(=S)Nc1ccccc1Cl)c1ccccn1`, the AC50 is 0.055 µM.

As to `CCn1c2ccccc2c2cc(/C=N/n3cn[nH]c3=S)ccc21`, the AC50 was 3.79 µM.

Turning to `COc1ccc(-c2nnc(NC(=O)c3ccc(S(=O)(=O)N4CCCc5ccccc54)cc3)o2)cc1`, the AC50 was 15 µM.

Turning to `O=C(Nc1ccc(N2CCOCC2)cc1)c1cn2ccccc2n1`, the AC50 was 10.9 µM.

On to `O=C(c1cccc(F)c1)N1CCN(c2cccc(Cl)c2)CC1`, for which the half-maximal activity concentration (AC50) was 3.11 µM.

Turning to `COc1cc(C=C2CCCC(=Cc3ccc(OCC4CO4)c(OC)c3)C2=O)ccc1OCC1CO1` (configuration not stated), the AC50 is 5.45 µM.

Regarding `COc1ccccc1N(C(C)=O)C1=C(Cl)C(=O)c2ccccc2C1=O`, the concentration at half-maximal activity (AC50) was 2.59 µM.

As for `COc1ccc(N/N=C/c2c(C(=O)O)ccc3ccccc23)cc1`, the concentration at half-maximal activity (AC50) was 3.99 µM.

As to `Cc1csc(N=Nc2ccc(N(C)C)cc2)[n+]1[O-]`, the AC50 is 7.33 µM.

In the case of `C(=Cc1cnc2ccccc2n1)c1ccc2c(c1)OCO2`, the AC50 is 6.12 µM.

With `CC(=NNC(=S)Nc1ccc(C)cc1)c1ccccn1`, the AC50 is 0.269 µM.

On to `C/C(=N/NC(=O)c1ccc(C(C)(C)C)cc1)c1ccccn1`, for which the AC50 was 1.05 µM.

Consider `CCc1sc(C(=O)Nc2nc(-c3ccccn3)cs2)cc1C`, for which the concentration at half-maximal activity (AC50) was 7.43 µM.

For `COc1ccc(CNC(=O)N2[C@H]3CC[C@@H]2C=C(c2ccc(F)cc2OCc2ccccc2)C3)cc1OC`, the half-maximal activity concentration (AC50) is 2.3 µM.

In the case of `COc1ccc2[nH]c(C(=O)N/N=C/c3ccc(O)cc3O)cc2c1`, the half-maximal activity concentration (AC50) is 16 µM.

Take `Cc1nc2c(-c3ccc(Cl)cc3)c(C)[nH]n2c(=O)c1Cc1ccccc1`: the AC50 was 6.96 µM.

For the molecule `CCN(CC)CCC(=O)N1C/C(=C/c2ccccc2)C(=O)/C(=C\c2ccccc2)C1`, the concentration at half-maximal activity (AC50) was 1.36 µM.

`COc1ccc(-c2ccc(NC(=O)c3ccco3)cc2)nn1`: the half-maximal activity concentration (AC50) was 4.42 µM.

As for `CC(=NNc1nc2ccccc2o1)c1ncccn1`, the AC50 was 0.384 µM.

Take `CC(=NNC(=S)N1CC2CCC(CC2)C1)c1nccs1`: the concentration at half-maximal activity (AC50) is 0.362 µM.

As to `CCn1c2ccccc2c2cc(/C=N/NC(=O)c3ccccc3)ccc21`, the concentration at half-maximal activity (AC50) is 1.52 µM.

`O=C(Nc1ccc(C(=O)N2CCOCC2)cc1)Nc1cccc(C(F)(F)F)c1`: the AC50 is > 19.5 µM (inactive).

Take `CCCC(=O)NC(c1ccc(C(C)C)cc1)c1ccc2cccnc2c1O` (configuration not stated): the concentration at half-maximal activity (AC50) was 1.74 µM.

Turning to `CCn1c2ccccc2c2cc(/C=N/n3c(C)nnc3C)ccc21`, the AC50 was > 19.5 µM (inactive).

As to `Nc1ccc(C(=O)N/N=C\c2cc(N=Nc3cccc4ccccc34)ccc2O)cc1`, the half-maximal activity concentration (AC50) is 10.7 µM.

As for `CCN1CCN(Cc2ccc(NC(=O)c3ccc(C)c(NC(=O)c4c[nH]c5cc(C(F)(F)F)ccc5c4=O)c3)cc2C(F)(F)F)CC1`, the AC50 was 3.95 µM.

As for `Cc1ccc(/C=N/NC(=O)c2cc(-c3ccccc3)nc3ccccc23)o1`, the AC50 was > 19.5 µM (inactive).

For `COc1ccc(/C=C/c2nc3ccccc3n2C)cc1`, the AC50 is 3.28 µM.

On to `C=CCn1c(O)c(N=NC(=S)Nc2cccc(C)c2)c2ccccc21`, for which the AC50 is 2.48 µM.

Turning to `Cc1cc(=O)[nH]c(NN=Cc2cc(Br)ccc2O)n1`, the half-maximal activity concentration (AC50) is 3.92 µM.

Broadly, the AC50 is the concentration giving half of the maximal activity seen.
